# Read-outs that look alike come from different tables or passages of the source.
# Columns and labels:
# fine-wool Merino wethers = details: 60 mg thyroxine implants in summer and autumn; cited from earlier work
# [1] = tested on: Hy-Line W-36 White Leghorn hens
# Protocol: Experiment 1. […] While acknowledging that injecting individual hens is commercially impractical (Webster, 2003), nevertheless an initial study was needed to establish the efficacy of T4 when it is delivered directly into the hens in precisely measured doses. The photoperiod was 17 hours of light per day (0330 hours to 2030 hours).
# White Leghorn hens = details: excessive injected levels, e.g. 243 micrograms/100 g body weight; cited from earlier work
# [2] = tested on: 66-week-old caged laying hens; details: cited from earlier work
# [3] = daily injections of 150 mcg/kg body weight; cited from earlier work
# [4] = tested on: growing cockerel and pullet chickens; details: 10 mg/kg dietary thyroid hormone; cited from earlier work
# [5] = tested on: Hy-Line W-36 White Leghorn hens; details: for Ovary Weight per hen / Oviduct Weight per hen: day 34
# From the text: Experiment 3. […] The photoperiod serves as the primary environmental signal that regulates reproductive function in many avian species. Increasing the photoperiod promotes maturation of the gonads and reproductive tract, whereas reducing the photoperiod causes the gonads and reproductive tract to regress and molting to occur.
# [6] = tested on: Cobb broiler breeder hens and roosters
# From the text: Molting Cobb Broiler Breeder Hens and Roosters with Dietary Thyroxine.
# [7] = tested on: fast-growing broiler chickens; details: low ambient temperature and pelleted feed; untreated 21.5%; cited from earlier work
# laying turkeys = details: 2 mg L-thyroxine/hen/day i.m.; cited from earlier work
compound,measurement,setting,value
"N[C@@H](Cc1cc(I)c(Oc2cc(I)c(O)c(I)c2)c(I)c1)C(=O)O [L-thyroxine, 3,5,3′,5′-tetraiodo-L-thyronine]",Increase in annual fleece weight,fine-wool Merino wethers,34%
same,Egg production,[1]; 250 μg T4 per kg body weight for 12 consecutive days,did not reduce egg production significantly
same,Onset of molt in all cages after the start of T4 injection,[1]; 500 μg T4 Group,11 days
same,Day of T4 injection by which egg production ceased entirely,"[1]; 1,000 μg T4 Group",≤ 8 days
same,Onset of molt in all cages after the start of T4 injection,"[1]; 1,000 μg T4 Group",9 days
same,Mortality,"[1]; 1,000 μg T4 Group, 2 of 8 hens, 9th and 10th day after start of injection",25%
same,Time to complete cessation of egg production,"[1]; 2,000 μg T4 per kg body weight for 3 consecutive days",≤ 6 days
same,Mortality,"[1]; 4,000 μg T4 Group, 1 of 4 hens, 8th day after start of injection",25%
same,Time to complete cessation of egg production,"[1]; 4,000 μg T4 per kg body weight for 3 consecutive days",≤ 4 days
same,End of Injections Body Weight,[1]; 250 mcg/kg body wt i.m. 12 d,1300 g
same,Initial Body Weight,[1]; 250 mcg/kg body wt i.m. 12 d,1495 g
same,Hen-day egg production,"[1]; 250 mcg/kg body wt i.m. 12 d from day 15, day 14",93.8%
same,Hen-day egg production,"[1]; 250 mcg/kg body wt i.m. 12 d from day 15, day 16",87.5%
same,Hen-day egg production,"[1]; 250 mcg/kg body wt i.m. 12 d from day 15, day 18",68.8%
same,Hen-day egg production,"[1]; 250 mcg/kg body wt i.m. 12 d from day 15, day 20",56.3%
same,Hen-day egg production,"[1]; 250 mcg/kg body wt i.m. 12 d from day 15, day 22",25.0%
same,Hen-day egg production,"[1]; 250 mcg/kg body wt i.m. 12 d from day 15, day 24",31.3%
same,Hen-day egg production,"[1]; 250 mcg/kg body wt i.m. 12 d from day 15, day 26",37.5%
same,Hen-day egg production,"[1]; 250 mcg/kg body wt i.m. 12 d from day 15, day 28",31.3%
same,Hen-day egg production,"[1]; 250 mcg/kg body wt i.m. 12 d from day 15, day 30",37.5%
same,Time after start of injecting until egg production significantly reduced,"[1]; 500 and 1,000 μg T4 Groups",4 days
same,End of Injections Body Weight,[1]; 500 mcg/kg body wt i.m. 8 d,1299 g
same,Initial Body Weight,[1]; 500 mcg/kg body wt i.m. 8 d,1472 g
same,Hen-day egg production,"[1]; 500 mcg/kg body wt i.m. 8 d from day 15, day 14",87.5%
same,Hen-day egg production,"[1]; 500 mcg/kg body wt i.m. 8 d from day 15, day 16",93.8%
same,Hen-day egg production,"[1]; 500 mcg/kg body wt i.m. 8 d from day 15, day 18",31.3%
same,Hen-day egg production,"[1]; 500 mcg/kg body wt i.m. 8 d from day 15, day 20",31.3%
same,Hen-day egg production,"[1]; 500 mcg/kg body wt i.m. 8 d from day 15, day 22",6.3%
same,Hen-day egg production,"[1]; 500 mcg/kg body wt i.m. 8 d from day 15, day 24",6.3%
same,Hen-day egg production,"[1]; 500 mcg/kg body wt i.m. 8 d from day 15, day 26",6.3%
same,Hen-day egg production,"[1]; 500 mcg/kg body wt i.m. 8 d from day 15, day 28",6.3%
same,Hen-day egg production,"[1]; 500 mcg/kg body wt i.m. 8 d from day 15, day 30",25.0%
same,Size of regressed reproductive tracts at necropsy,"[1]; 1,000 and 4,000 μg T4 Groups",≤ 50 % normal size
same,End of Injections Body Weight,"[1]; 1,000 mcg/kg body wt i.m. 8 d",1167 g
same,Initial Body Weight,"[1]; 1,000 mcg/kg body wt i.m. 8 d",1513 g
same,Hen-day egg production,"[1]; 1,000 mcg/kg body wt i.m. 8 d from day 15, day 14",81.3%
same,Hen-day egg production,"[1]; 1,000 mcg/kg body wt i.m. 8 d from day 15, day 16",68.8%
same,Hen-day egg production,"[1]; 1,000 mcg/kg body wt i.m. 8 d from day 15, day 18",31.3%
same,Hen-day egg production,"[1]; 1,000 mcg/kg body wt i.m. 8 d from day 15, day 20",12.5%
same,Hen-day egg production,"[1]; 1,000 mcg/kg body wt i.m. 8 d from day 15, day 22",0.0%
same,Hen-day egg production,"[1]; 1,000 mcg/kg body wt i.m. 8 d from day 15, day 24",0.0%
same,Hen-day egg production,"[1]; 1,000 mcg/kg body wt i.m. 8 d from day 15, day 26",0.0%
same,Hen-day egg production,"[1]; 1,000 mcg/kg body wt i.m. 8 d from day 15, day 28",0.0%
same,Hen-day egg production,"[1]; 1,000 mcg/kg body wt i.m. 8 d from day 15, day 30",0.0%
same,Onset of molt in all cages after the start of injection,"[1]; 2,000 and 4,000 μg T4 Groups",9 days
same,End of Injections Body Weight,"[1]; 2,000 mcg/kg body wt i.m. 3 d",1234 g
same,Initial Body Weight,"[1]; 2,000 mcg/kg body wt i.m. 3 d",1510 g
same,Hen-day egg production,"[1]; 2,000 mcg/kg body wt i.m. 3 d from day 15, day 14",62.5%
same,Hen-day egg production,"[1]; 2,000 mcg/kg body wt i.m. 3 d from day 15, day 16",87.5%
same,Hen-day egg production,"[1]; 2,000 mcg/kg body wt i.m. 3 d from day 15, day 18",87.5%
same,Hen-day egg production,"[1]; 2,000 mcg/kg body wt i.m. 3 d from day 15, day 20",75.0%
same,Hen-day egg production,"[1]; 2,000 mcg/kg body wt i.m. 3 d from day 15, day 22",50.0%
same,Hen-day egg production,"[1]; 2,000 mcg/kg body wt i.m. 3 d from day 15, day 24",12.5%
same,Hen-day egg production,"[1]; 2,000 mcg/kg body wt i.m. 3 d from day 15, day 26",0.0%
same,Hen-day egg production,"[1]; 2,000 mcg/kg body wt i.m. 3 d from day 15, day 28",0.0%
same,Hen-day egg production,"[1]; 2,000 mcg/kg body wt i.m. 3 d from day 15, day 30",0.0%
same,End of Injections Body Weight,"[1]; 4,000 mcg/kg body wt i.m. 3 d",1165 g
same,Initial Body Weight,"[1]; 4,000 mcg/kg body wt i.m. 3 d",1387 g
same,Hen-day egg production,"[1]; 4,000 mcg/kg body wt i.m. 3 d from day 15, day 14",62.5%
same,Hen-day egg production,"[1]; 4,000 mcg/kg body wt i.m. 3 d from day 15, day 16",87.5%
same,Hen-day egg production,"[1]; 4,000 mcg/kg body wt i.m. 3 d from day 15, day 18",100.0%
same,Hen-day egg production,"[1]; 4,000 mcg/kg body wt i.m. 3 d from day 15, day 20",87.5%
same,Hen-day egg production,"[1]; 4,000 mcg/kg body wt i.m. 3 d from day 15, day 22",25.0%
same,Hen-day egg production,"[1]; 4,000 mcg/kg body wt i.m. 3 d from day 15, day 24",0.0%
same,Hen-day egg production,"[1]; 4,000 mcg/kg body wt i.m. 3 d from day 15, day 26",0.0%
same,Hen-day egg production,"[1]; 4,000 mcg/kg body wt i.m. 3 d from day 15, day 28",0.0%
same,Hen-day egg production,"[1]; 4,000 mcg/kg body wt i.m. 3 d from day 15, day 30",0.0%
same,Mortality,White Leghorn hens,47%
same,Days to target body weight (30% loss),[2]; 1-day fast or no fast followed by corn diet with or without thyroxine,28 days
same,Days to target body weight (30% loss),"[2]; 1-day feed withdrawal, then grape pomace diet plus 10 mg thyroxine/kg",16 days
same,Egg production from 66 to 98 weeks,[2]; grape pomace diet plus thyroxine,64.7%
same,Decrease in fiber diameter,[3],7.8%
same,Increase in mohair length growth rate,[3],15%
same,Reduction in body weight gain compared to controls,[4],28.18%
same,Hens molted,"[5]; 20 mg T4/kg groups, either chamber",None of the hens
same,Time to significantly reduced egg production,"[5]; 20 mg T4/kg, 17 hr light",≤ 8 days
same,Body weight (BW),"[5]; 20 mg/kg of feed 12 d from day 13, 8 hr light, Day 12 (pre-molt)",1492 g
same,Body weight change (% BWC),"[5]; 20 mg/kg of feed 12 d from day 13, 8 hr light, Day 22",−12.8%
same,Body weight (BW),"[5]; 20 mg/kg of feed 12 d from day 13, 8 hr light, Day 22 (end of molt)",1301 g
same,Body weight change (% BWC),"[5]; 20 mg/kg of feed 12 d from day 13, 8 hr light, Day 34",−10.7%
same,Body weight (BW),"[5]; 20 mg/kg of feed 12 d from day 13, 8 hr light, Day 34 (final)",1332 g
same,Body weight (BW),"[5]; 20 mg/kg of feed 12 d from day 13, 17 hr light, Day 12 (pre-molt)",1572 g
same,Body weight change (% BWC),"[5]; 20 mg/kg of feed 12 d from day 13, 17 hr light, Day 22",−13.3%
same,Body weight (BW),"[5]; 20 mg/kg of feed 12 d from day 13, 17 hr light, Day 22 (end of molt)",1363 g
same,Body weight change (% BWC),"[5]; 20 mg/kg of feed 12 d from day 13, 17 hr light, Day 34",−7.6%
same,Body weight (BW),"[5]; 20 mg/kg of feed 12 d from day 13, 17 hr light, Day 34 (final)",1453 g
same,Ovary Weight per hen,"[5]; 20 mg/kg of feed, 8 hr light",7.91 g
same,Oviduct Weight per hen,"[5]; 20 mg/kg of feed, 8 hr light",18.64 g
same,Ovary Weight per hen,"[5]; 20 mg/kg of feed, 17 hr light",31.41 g
same,Oviduct Weight per hen,"[5]; 20 mg/kg of feed, 17 hr light",43.81 g
same,Hens molted fully,"[5]; 40 mg T4/kg, 8 hr light, 7/12",58%
same,Hens molted fully,"[5]; 40 mg T4/kg, 17 hr light",100%
same,Time to significantly reduced egg production,"[5]; 40 mg T4/kg, 17 hr light",≤ 6 days
same,Body weight (BW),"[5]; 40 mg/kg of feed 12 d from day 13, 8 hr light, Day 12 (pre-molt)",1488 g
same,Body weight change (% BWC),"[5]; 40 mg/kg of feed 12 d from day 13, 8 hr light, Day 22",−17.9%
same,Body weight (BW),"[5]; 40 mg/kg of feed 12 d from day 13, 8 hr light, Day 22 (end of molt)",1222 g
same,Body weight change (% BWC),"[5]; 40 mg/kg of feed 12 d from day 13, 8 hr light, Day 34",−12.6%
same,Body weight (BW),"[5]; 40 mg/kg of feed 12 d from day 13, 8 hr light, Day 34 (final)",1300 g
same,Body weight (BW),"[5]; 40 mg/kg of feed 12 d from day 13, 17 hr light, Day 12 (pre-molt)",1436 g
same,Body weight change (% BWC),"[5]; 40 mg/kg of feed 12 d from day 13, 17 hr light, Day 22",−18.0%
same,Body weight (BW),"[5]; 40 mg/kg of feed 12 d from day 13, 17 hr light, Day 22 (end of molt)",1178 g
same,Body weight change (% BWC),"[5]; 40 mg/kg of feed 12 d from day 13, 17 hr light, Day 34",−14.8%
same,Body weight (BW),"[5]; 40 mg/kg of feed 12 d from day 13, 17 hr light, Day 34 (final)",1224 g
same,Ovary Weight per hen,"[5]; 40 mg/kg of feed, 8 hr light",9.32 g
same,Oviduct Weight per hen,"[5]; 40 mg/kg of feed, 8 hr light",14.25 g
same,Ovary Weight per hen,"[5]; 40 mg/kg of feed, 17 hr light",3.82 g
same,Oviduct Weight per hen,"[5]; 40 mg/kg of feed, 17 hr light",8.03 g
same,Mortality,"[5]; 20 and 40 mg T4/kg, 12 days",No mortality occurred
same,Time to significantly reduced egg production,"[5]; 20 and 40 mg T4/kg, 8 hr light",≤ 4 days
same,Toxicity to broiler breeder males,[6]; 25 mg/kg diet or more,toxic to broiler breeder males (death)
same,Testes of broiler breeder males,[6]; 25 or 40 mg T4/kg diet,testes shown to enlarge
same,Adverse sign in roosters,[6]; 25 or 40 mg/kg diet,“stroke blood” from the nostrils
same,"Time on treated feed until hens reduced feed intake, ceased egg production and began to molt feathers","[6]; Cobb broiler breeder hens, 25 or 40 ppm",15 to 17 days
same,Tolerance of males for thyroxine (T4) alone,[6]; excess causes mortality,< 25 mg/kg diet
same,Ascites,[7],7%
same,Time out of egg production after treatment,laying turkeys,4 weeks

# Source: US20060008512A1, “Composition and methods for improved animal performance” (priority 2004, published 2006)
